Patent US20150258190A1, “NICOTINAMIDE AS ADJUVANT” (NOVARTIS AG, priority 2012, published 2015)

Key:
[1] = test system: S. aureus; conditions: NAM daily beginning 24 hours prior to or 12 hours after infection with S. aureus; cited from earlier work
[2] = test system: Sta006; assay: Antibody titre at day 23 by Luminex assay; format: in vivo, mouse; conditions: day 23 after first vaccination
Experimental: (§1) At day 23 after the first vaccination with the S. aureus combination vaccine (i.e. one day prior to the challenge with a lethal dose of S. aureus), the HlaH35L, EsxAB, Sta006 and Sta011 antibody titres for each group of mice described in Example 2 were measured by Luminex assay.

[3] = test system: S. aureus strain Newman; assay: Survival of vaccinated or mock-injected mice after challenge with a lethal dose of live S. aureus; format: in vivo, CD1 mice
Experimental: Four groups of 47 to 48 CD1 mice were treated as follows: CD1 mice were immunized twice via intraperitoneal injection two weeks apart (on day 0 and day 14), and each mouse received 200 μl of (mock-)vaccine. Groups 1 (Alum-Nam) and 2 (Alum) were mock-injected with alum (saline plus 2 mg/ml aluminium-hydroxide), groups 3 (Combo-NAM) and 4 (Combo only) were immunised with the S. aureus combination vaccine of Example 1. Groups 1 (Alum-Nam) and 3 (Combo-NAM) received 250 mg/kg NAM orally one day before and one day after challenge with a lethal dose of live S. aureus.
On day 24 (i.e. 10 days after the second vaccination), the immunised animals of groups 1-4 were challenged by intraperitoneal injection of a bacterial suspension of S. aureus strain Newman (approximately 2 to 5×10^8 CFU). Cultures of S. aureus were centrifuged, washed twice and diluted in PBS before challenge. Survival of the mice was monitored over a 15-day period post infection.
Survival rates were analysed by Mann-Whitney U-test. Mice were daily monitored and euthanized according to humane endpoints, in agreement with Novartis Animal Welfare Policies.

[4] = cited from earlier work
[5] = test system: Sta011; assay: Antibody titre at day 23 by Luminex assay; format: in vivo, mice; conditions: day 23 after first vaccination
Experimental: as §1

[6] = test system: HlaH35L; assay: Antibody titre at day 23 by Luminex assay; format: in vivo, mice; conditions: day 23 after first vaccination
Experimental: as §1

[7] = test system: EsxAB; assay: Antibody titre at day 23 by Luminex assay; format: in vivo, mice; conditions: day 23 after first vaccination
Experimental: as §1

[8] = cited from earlier work; remark: listed apart in the source

NC(=O)c1cccnc1 [NAM, nicotinamide]
immune killing of the bacteria [1]: dramatically enhances
Sta006 antibody titre in serum, group 3 (vaccinated, NAM treatment) vs group 4 (vaccinated, no NAM treatment) [2]: No significant difference
mice that survived until 15 days post infection ([3]; CD1 mice, (mock-)vaccine i.p. day 0 and 14, i.p. challenge day 24, NAM 250 mg/kg orally one day before and one day after challenge): 9%
mortality in comparison to mice which had received only the vaccine ([3]; mice immunized with S. aureus combination vaccine, NAM 250 mg/kg orally): significantly decreased
protecting mice against a lethal infection with S. aureus ([3]; mice treated with alum alone, NAM 250 mg/kg orally): not effective
dose reported to be reversible hepatotoxic ([4]; animals and humans): > 3 g/day
side effects associated with treatment of human subjects ([4]; human subjects): no significant side effects
oncogenic / teratogenic in humans [4]: neither oncogenic nor teratogenic
Sta011 antibody titre in serum, group 3 (vaccinated, NAM treatment) vs group 4 (vaccinated, no NAM treatment) [5]: No significant difference
HlaH35L antibody titre in serum, group 3 (vaccinated, NAM treatment) vs group 4 (vaccinated, no NAM treatment) [6]: No significant difference
EsxAB antibody titre in serum, group 3 (vaccinated, NAM treatment) vs group 4 (vaccinated, no NAM treatment) [7]: No significant difference

Nc1cccc2c1CN(C1CCC(=O)NC1=O)C2=O (centres unmarked) [lenalidomide]
oncogenic / teratogenic in humans [4]: potentially teratogenic
bone marrow toxicity as adverse effect in patients [4]: frequently observed

Nc1cccc2c1C(=O)N(C1CCC(=O)NC1=O)C2=O (centres unmarked) [pomalidomide]
oncogenic / teratogenic in humans [4]: potentially teratogenic
bone marrow toxicity as adverse effect in patients [4]: frequently observed

N[C@H](CCC(=O)N[C@@H](Cc1c[nH]c2ccccc12)C(=O)O)C(=O)O [γ-D-glutamyl-L-tryptophan]
adverse effects on administration to human subjects ([8]; human, in vivo): without adverse effects
clinical effect on oral mucositis ([8]; humans): no clinical effect
